From ChEMBL document CHEMBL4024706 (Eur J Med Chem, 2017)

What was measured:
[1] = tested on: Epidermal growth factor receptor (Homo sapiens), P00533 [L858R]; test: Inhibition of human partial length EGFR L858R mutant (R669 to V1011 residues) expressed in bacterial expression system assessed as residual activity at 1 uM by Kinomescan method relative to control
[2] = target: 3-phosphoinositide-dependent protein kinase 1 (Homo sapiens) (UniProt O15530); test: Inhibition of wild-type human full length PDPK1 (M1 to Q556 residues) expressed in bacterial expression system assessed as residual activity at 1 uM by Kinomescan method relative to control
[3] = target: Death-associated protein kinase 1 (Homo sapiens) (UniProt P53355); test: Inhibition of wild-type human partial length DAPK1 (M1 to F296 residues) expressed in bacterial expression system assessed as residual activity at 1 uM by Kinomescan method relative to control
[4] = target: Mitogen-activated protein kinase 11 (Homo sapiens) (UniProt Q15759); test: Inhibition of wild-type human full length p38-beta (M1 to Q364 residues) expressed in bacterial expression system assessed as residual activity at 1 uM by Kinomescan method relative to control
[5] = target: Uncharacterized serine/threonine-protein kinase SBK3 (Homo sapiens) (UniProt P0C264); test: Inhibition of wild-type human partial length SgK110 (L22 to R329 residues) expressed in bacterial expression system assessed as residual activity at 1 uM by Kinomescan method relative to control
Uncharacterized serine/threonine-protein kinase SBK3 (Homo sapiens), sequence (P0C264 whole entry, the tested form may be a part): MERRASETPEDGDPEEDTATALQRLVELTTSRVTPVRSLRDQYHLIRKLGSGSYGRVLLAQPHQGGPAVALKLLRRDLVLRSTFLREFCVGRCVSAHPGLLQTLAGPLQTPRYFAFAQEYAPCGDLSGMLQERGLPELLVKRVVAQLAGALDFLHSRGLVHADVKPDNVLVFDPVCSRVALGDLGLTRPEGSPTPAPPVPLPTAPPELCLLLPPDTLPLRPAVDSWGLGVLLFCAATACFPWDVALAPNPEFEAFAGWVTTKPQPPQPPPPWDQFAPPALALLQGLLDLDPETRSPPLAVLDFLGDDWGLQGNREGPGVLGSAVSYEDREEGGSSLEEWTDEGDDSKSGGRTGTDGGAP

[6] = target: TGF-beta receptor type-1 (Homo sapiens) (UniProt P36897); test: Inhibition of wild-type human partial length TGFBR1 (D179 to M503 residues) expressed in bacterial expression system assessed as residual activity at 1 uM by Kinomescan method relative to control
TGF-beta receptor type-1 (Homo sapiens), sequence (P36897 whole entry, the tested form may be a part): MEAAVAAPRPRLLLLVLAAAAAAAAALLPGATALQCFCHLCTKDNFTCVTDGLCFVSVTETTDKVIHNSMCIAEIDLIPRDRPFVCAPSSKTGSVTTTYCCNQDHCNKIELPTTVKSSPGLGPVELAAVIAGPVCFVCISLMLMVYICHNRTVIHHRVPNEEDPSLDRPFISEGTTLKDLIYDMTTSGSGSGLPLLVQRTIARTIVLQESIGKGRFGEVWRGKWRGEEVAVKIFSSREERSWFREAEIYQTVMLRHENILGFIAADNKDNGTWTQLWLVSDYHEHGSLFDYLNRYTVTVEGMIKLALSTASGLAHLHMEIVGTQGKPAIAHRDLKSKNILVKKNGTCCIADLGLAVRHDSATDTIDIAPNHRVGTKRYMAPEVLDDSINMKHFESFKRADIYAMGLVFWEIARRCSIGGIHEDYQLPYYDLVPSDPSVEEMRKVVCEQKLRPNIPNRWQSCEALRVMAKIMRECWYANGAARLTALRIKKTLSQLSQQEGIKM

[7] = target: Mitogen-activated protein kinase kinase kinase 14 (Homo sapiens) (UniProt Q99558); test: Inhibition of wild-type human partial length NIK (L318 to P947 residues) expressed in mammalian expression system assessed as residual activity at 1 uM by Kinomescan method relative to control
[8] = target: Serine/threonine-protein kinase MRCK alpha (Homo sapiens) (UniProt Q5VT25); test: Inhibition of wild-type human partial length MRCKA (L57 to V418 residues) expressed in bacterial expression system assessed as residual activity at 1 uM by Kinomescan method relative to control
[9] = target: Serine/threonine-protein kinase 35 (Homo sapiens) (UniProt Q8TDR2); test: Inhibition of wild-type human partial length STK35 (G182 to A534 residues) expressed in bacterial expression system assessed as residual activity at 1 uM by Kinomescan method relative to control
[10] = tested on: Tyrosine-protein kinase ABL1 (Homo sapiens), P00519 [H396P]; test: Inhibition of human non-phosphorylated ABL1 H396P mutant (S229 to K512 residues) expressed in mammalian expression system assessed as residual activity at 1 uM by Kinomescan method relative to control
[11] = target: Wee1-like protein kinase (Homo sapiens) (UniProt P30291); test: Inhibition of wild-type human partial length WEE1 (M291 to K575 residues) expressed in bacterial expression system assessed as residual activity at 1 uM by Kinomescan method relative to control
Wee1-like protein kinase (Homo sapiens), sequence (P30291 whole entry, looked up, the tested form may be a part): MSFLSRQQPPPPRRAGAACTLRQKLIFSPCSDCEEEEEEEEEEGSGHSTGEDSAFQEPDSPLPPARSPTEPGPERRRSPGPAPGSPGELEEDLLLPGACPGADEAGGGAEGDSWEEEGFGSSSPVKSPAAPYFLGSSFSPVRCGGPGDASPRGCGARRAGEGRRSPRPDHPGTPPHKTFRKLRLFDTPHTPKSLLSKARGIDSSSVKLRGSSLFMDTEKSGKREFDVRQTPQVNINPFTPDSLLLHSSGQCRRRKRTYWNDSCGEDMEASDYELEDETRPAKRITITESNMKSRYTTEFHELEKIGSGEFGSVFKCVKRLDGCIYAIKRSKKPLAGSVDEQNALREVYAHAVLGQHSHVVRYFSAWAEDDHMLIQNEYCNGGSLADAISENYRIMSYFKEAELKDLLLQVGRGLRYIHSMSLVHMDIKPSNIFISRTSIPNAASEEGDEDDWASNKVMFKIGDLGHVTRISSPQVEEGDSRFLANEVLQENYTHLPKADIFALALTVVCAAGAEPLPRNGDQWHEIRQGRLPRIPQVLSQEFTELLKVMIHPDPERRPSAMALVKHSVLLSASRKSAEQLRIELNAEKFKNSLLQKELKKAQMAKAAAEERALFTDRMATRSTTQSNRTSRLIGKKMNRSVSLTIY

[12] = tested on: Hepatocyte growth factor receptor (Homo sapiens), P08581 [M1250T]; test: Inhibition of human partial length MET M1250T mutant (D1010 to S1367 residues) expressed in bacterial expression system assessed as residual activity at 1 uM by Kinomescan method relative to control
[13] = target: Ephrin type-A receptor 5 (Homo sapiens) (UniProt P54756); test: Inhibition of wild-type human partial length EPHA5 (T627 to V930 residues) expressed in bacterial expression system assessed as residual activity at 1 uM by Kinomescan method relative to control
[14] = target: Tyrosine-protein kinase Lyn (Homo sapiens) (UniProt P07948); test: Inhibition of wild-type human partial length LYN (C219 to Q511 residues) expressed in bacterial expression system assessed as residual activity at 1 uM by Kinomescan method relative to control
Tyrosine-protein kinase Lyn (Homo sapiens), sequence (P07948 2-512 limits assumed): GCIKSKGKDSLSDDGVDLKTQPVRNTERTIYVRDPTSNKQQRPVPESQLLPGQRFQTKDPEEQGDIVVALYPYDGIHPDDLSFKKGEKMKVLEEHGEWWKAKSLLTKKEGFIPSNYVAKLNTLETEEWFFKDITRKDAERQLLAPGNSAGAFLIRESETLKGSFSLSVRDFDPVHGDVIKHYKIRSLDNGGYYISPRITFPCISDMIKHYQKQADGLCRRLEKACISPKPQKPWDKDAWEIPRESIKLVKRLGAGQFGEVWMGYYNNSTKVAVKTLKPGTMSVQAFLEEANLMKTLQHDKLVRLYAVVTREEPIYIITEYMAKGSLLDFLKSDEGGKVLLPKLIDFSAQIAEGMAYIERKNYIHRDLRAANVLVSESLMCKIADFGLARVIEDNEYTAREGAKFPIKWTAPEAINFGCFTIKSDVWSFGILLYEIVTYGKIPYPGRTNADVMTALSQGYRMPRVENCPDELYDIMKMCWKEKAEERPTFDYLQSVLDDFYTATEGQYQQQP

[15] = target: Dual specificity protein kinase CLK2 (Homo sapiens) (UniProt P49760); test: Inhibition of wild-type human partial length CLK2 (D144 to R498 residues) expressed in bacterial expression system assessed as residual activity at 1 uM by Kinomescan method relative to control
Dual specificity protein kinase CLK2 (Homo sapiens), sequence (P49760 whole entry, looked up, the tested form may be a part): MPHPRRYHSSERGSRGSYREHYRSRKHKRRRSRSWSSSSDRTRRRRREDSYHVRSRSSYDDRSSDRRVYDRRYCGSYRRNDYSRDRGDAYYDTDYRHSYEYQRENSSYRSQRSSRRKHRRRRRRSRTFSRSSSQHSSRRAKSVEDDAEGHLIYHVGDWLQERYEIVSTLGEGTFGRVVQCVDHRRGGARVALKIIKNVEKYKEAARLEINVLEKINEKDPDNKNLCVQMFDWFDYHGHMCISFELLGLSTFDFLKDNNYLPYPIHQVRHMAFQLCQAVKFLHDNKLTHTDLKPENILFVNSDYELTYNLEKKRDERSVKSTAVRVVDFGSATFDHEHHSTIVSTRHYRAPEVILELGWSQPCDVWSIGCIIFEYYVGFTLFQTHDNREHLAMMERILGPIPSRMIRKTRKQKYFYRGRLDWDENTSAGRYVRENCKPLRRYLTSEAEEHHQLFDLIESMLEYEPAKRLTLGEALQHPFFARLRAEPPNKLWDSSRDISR

[16] = target: cGMP-dependent protein kinase 1 (Homo sapiens) (UniProt Q13976); test: Inhibition of wild-type human partial length PRKG1 (L339 to F686 residues) expressed in bacterial expression system assessed as residual activity at 1 uM by Kinomescan method relative to control
[17] = target: Myosin-IIIb (Homo sapiens) (UniProt Q8WXR4); test: Inhibition of wild-type human partial length MYO3B (M1 to D357 residues) expressed in bacterial expression system assessed as residual activity at 1 uM by Kinomescan method relative to control
Myosin-IIIb (Homo sapiens), sequence (Q8WXR4 whole entry, the tested form may be a part): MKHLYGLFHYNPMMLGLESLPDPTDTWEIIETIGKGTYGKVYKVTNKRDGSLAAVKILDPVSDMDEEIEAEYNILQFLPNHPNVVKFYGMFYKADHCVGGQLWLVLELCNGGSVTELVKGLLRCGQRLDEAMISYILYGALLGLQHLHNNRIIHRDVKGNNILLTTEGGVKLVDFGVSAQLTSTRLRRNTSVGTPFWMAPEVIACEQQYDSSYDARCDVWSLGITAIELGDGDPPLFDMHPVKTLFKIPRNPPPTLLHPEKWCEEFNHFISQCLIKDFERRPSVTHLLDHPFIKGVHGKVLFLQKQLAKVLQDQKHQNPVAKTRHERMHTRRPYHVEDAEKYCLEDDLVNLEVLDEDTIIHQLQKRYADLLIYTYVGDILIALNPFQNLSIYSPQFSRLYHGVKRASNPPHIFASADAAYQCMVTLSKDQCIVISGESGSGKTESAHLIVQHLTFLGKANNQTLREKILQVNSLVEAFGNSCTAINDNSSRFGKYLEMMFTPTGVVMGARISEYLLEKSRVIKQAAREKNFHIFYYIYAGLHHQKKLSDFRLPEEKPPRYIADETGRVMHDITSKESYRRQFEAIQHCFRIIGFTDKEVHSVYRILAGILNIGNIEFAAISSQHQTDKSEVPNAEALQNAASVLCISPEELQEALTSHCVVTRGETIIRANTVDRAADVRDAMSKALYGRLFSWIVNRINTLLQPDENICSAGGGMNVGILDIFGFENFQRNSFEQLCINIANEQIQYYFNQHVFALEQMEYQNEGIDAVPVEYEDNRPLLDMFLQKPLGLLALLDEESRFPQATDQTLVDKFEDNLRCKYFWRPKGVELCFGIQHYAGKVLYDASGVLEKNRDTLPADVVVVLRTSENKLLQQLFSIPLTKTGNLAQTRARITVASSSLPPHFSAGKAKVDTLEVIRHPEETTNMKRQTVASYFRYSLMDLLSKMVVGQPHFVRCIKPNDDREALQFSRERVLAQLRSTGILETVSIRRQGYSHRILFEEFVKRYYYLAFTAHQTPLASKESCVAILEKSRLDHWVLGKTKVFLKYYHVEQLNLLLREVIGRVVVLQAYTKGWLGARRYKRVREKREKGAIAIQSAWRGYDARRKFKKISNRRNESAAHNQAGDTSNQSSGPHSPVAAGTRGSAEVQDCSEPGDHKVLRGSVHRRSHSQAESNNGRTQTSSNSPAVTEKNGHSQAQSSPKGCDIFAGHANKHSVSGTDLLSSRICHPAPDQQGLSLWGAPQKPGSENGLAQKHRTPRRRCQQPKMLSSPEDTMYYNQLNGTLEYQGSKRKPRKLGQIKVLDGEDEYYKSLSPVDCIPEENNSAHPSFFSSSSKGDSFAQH

[18] = target: Mitogen-activated protein kinase kinase kinase 9 (Homo sapiens) (UniProt P80192); test: Inhibition of wild-type human partial length MLK1 (V88 to W426 residues) expressed in bacterial expression system assessed as residual activity at 1 uM by Kinomescan method relative to control
Mitogen-activated protein kinase kinase kinase 9 (Homo sapiens), sequence (P80192 whole entry, looked up, the tested form may be a part, canonical isoform): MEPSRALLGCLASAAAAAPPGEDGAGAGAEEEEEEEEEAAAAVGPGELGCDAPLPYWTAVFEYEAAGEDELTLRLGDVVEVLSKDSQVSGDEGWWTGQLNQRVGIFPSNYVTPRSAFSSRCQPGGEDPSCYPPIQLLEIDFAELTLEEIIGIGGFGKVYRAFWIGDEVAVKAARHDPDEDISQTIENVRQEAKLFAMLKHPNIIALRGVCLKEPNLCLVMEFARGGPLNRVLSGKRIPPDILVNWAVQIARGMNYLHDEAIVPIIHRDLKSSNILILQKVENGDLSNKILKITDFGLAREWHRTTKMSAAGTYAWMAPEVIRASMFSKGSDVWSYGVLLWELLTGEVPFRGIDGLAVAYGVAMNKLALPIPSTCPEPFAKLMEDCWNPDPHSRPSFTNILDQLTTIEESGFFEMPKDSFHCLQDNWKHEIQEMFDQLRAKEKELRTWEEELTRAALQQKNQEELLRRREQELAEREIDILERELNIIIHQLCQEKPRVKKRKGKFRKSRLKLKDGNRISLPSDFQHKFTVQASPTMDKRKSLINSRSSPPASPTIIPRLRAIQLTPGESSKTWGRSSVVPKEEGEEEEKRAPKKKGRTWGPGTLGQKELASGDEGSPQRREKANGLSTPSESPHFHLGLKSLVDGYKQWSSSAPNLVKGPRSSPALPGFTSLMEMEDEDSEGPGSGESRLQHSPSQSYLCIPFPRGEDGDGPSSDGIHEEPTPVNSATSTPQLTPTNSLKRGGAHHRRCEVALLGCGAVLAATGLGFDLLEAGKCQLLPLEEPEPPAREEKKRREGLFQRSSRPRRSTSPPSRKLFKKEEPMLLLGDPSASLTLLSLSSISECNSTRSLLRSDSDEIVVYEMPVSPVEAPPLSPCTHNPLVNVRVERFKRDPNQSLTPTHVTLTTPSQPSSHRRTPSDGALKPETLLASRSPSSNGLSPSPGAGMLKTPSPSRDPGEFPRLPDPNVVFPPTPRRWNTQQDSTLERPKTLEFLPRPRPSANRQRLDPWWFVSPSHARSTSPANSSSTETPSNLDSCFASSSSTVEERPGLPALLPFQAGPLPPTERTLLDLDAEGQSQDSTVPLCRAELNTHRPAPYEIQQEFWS

[19] = target: Phosphatidylinositol 4,5-bisphosphate 3-kinase catalytic subunit gamma isoform (Homo sapiens) (UniProt P48736); test: Inhibition of wild-type human partial length PIK3CG (S144 to A1102 residues) expressed in mammalian expression system assessed as residual activity at 1 uM by Kinomescan method relative to control
[20] = target: Citron Rho-interacting kinase (Homo sapiens) (UniProt O14578); test: Inhibition of wild-type human partial length CIT (M68 to E432 residues) expressed in bacterial expression system assessed as residual activity at 1 uM by Kinomescan method relative to control
[21] = target: Megakaryocyte-associated tyrosine-protein kinase (Homo sapiens) (UniProt P42679); test: Inhibition of wild-type human full length CTK (M43 to P508 residues) expressed in mammalian expression system assessed as residual activity at 1 uM by Kinomescan method relative to control
[22] = tested on: Epidermal growth factor receptor (Homo sapiens), P00533 [UNDEFINED MUTATION]; test: Inhibition of human partial length EGFR L747-T751del/Sins mutant expressed in bacterial expression system assessed as residual activity at 1 uM by Kinomescan method relative to control
[23] = target: Dual specificity tyrosine-phosphorylation-regulated kinase 2 (Homo sapiens) (UniProt Q92630); test: Inhibition of wild-type human full length DYRK2 (M1 to S528 residues) expressed in mammalian expression system assessed as residual activity at 1 uM by Kinomescan method relative to control
[24] = tested on: Proto-oncogene tyrosine-protein kinase receptor Ret (Homo sapiens), P07949 [M918T]; test: Inhibition of human partial length RET M918T mutant (E713 to D1014 residues) expressed in bacterial expression system assessed as residual activity at 1 uM by Kinomescan method relative to control
[25] = target: Ephrin type-B receptor 6 (Homo sapiens) (UniProt O15197); test: Inhibition of wild-type human partial length EPHB6 (Q634 to P948 residues) expressed in mammalian expression system assessed as residual activity at 1 uM by Kinomescan method relative to control

Q: How did the Activity [1] turn out when `C=CC(=O)Nc1cc(Nc2cc(-c3cccc(NC(=O)c4ccc(C(C)(C)C)cc4)c3C)cn(C)c2=O)ccc1C(=O)N1CCOCC1` was run?
A: 100%

Q: And the Activity [2]?
A: 90%

Q: What about the Activity [3] of the same molecule?
A: 100%

Q: And the Activity [4]?
A: 100%

Q: And the Activity [5]?
A: 77%

Q: And the Activity [6]?
A: 93%

Q: And the Activity [7]?
A: 86%

Q: And the Activity [8]?
A: 98%

Q: And the Activity [9]?
A: 94%

Q: What about the Activity [10] of the same molecule?
A: 100%

Q: What about the Activity [11] of the same molecule?
A: 99%

Q: And the Activity [12]?
A: 98%

Q: What about the Activity [13] of the same molecule?
A: 92%

Q: What about the Activity [14] of the same molecule?
A: 92%

Q: And the Activity [15]?
A: 100%

Q: And the Activity [16]?
A: 95%

Q: What about the Activity [17] of the same molecule?
A: 86%

Q: And the Activity [18]?
A: 99%

Q: What about the Activity [19] of the same molecule?
A: 100%

Q: What about the Activity [20] of the same molecule?
A: 97%

Q: And the Activity [21]?
A: 100%

Q: And the Activity [22]?
A: 100%

Q: What about the Activity [23] of the same molecule?
A: 97%

Q: And the Activity [24]?
A: 100%

Q: What about the Activity [25] of the same molecule?
A: 100%
